Results on one molecule are retold here after article PMC5507595 (Free radical biology & medicine, 2017).

For the test, the target named is protein disulfide isomerase (PDI) (Homo sapiens, UniProt P07237). In words: absorbance titration of MNS with reduced PDI. The test is classed as binding.
protein disulfide isomerase (PDI), sequence (P07237 18-508): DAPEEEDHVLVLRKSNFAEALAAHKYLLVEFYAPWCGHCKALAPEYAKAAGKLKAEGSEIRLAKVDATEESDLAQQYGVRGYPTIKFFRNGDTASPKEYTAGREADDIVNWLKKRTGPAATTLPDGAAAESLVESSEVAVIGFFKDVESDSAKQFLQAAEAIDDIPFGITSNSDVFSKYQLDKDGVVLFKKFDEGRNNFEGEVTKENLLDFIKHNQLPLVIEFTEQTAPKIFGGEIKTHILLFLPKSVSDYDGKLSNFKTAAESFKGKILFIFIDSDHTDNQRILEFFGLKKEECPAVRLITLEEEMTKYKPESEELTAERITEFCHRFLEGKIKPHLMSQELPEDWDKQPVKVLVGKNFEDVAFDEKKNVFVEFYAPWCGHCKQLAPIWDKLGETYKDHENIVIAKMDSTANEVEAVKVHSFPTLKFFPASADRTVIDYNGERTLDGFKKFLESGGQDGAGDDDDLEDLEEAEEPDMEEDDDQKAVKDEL

As to `O=[N+]([O-])C=Cc1ccc2c(c1)OCO2` [3,4-methylenedioxy-β-nitrostyrene], the Kd result is reported as “low micromolar”.
